Results on 36 compounds are retold here after ChEMBL document CHEMBL5325411, “Design, synthesis and biological evaluation of novel phenylfuran-bisamide derivatives as P-glycoprotein inhibitors against multidrug resistance in MCF-7/ADR cell” (Eur J Med Chem, 2023).

The source made the active and inactive calls. No cut-off for these calls is given here.

In series [1] the test system is NCI/ADR-RES. Description: Cytotoxicity against DOX-resistant human MCF7/ADR cells assessed as reversal fold of resistance by measuring ratio of doxorubicin IC50 alone to doxorubicin IC50 in presence of test compound incubated for 48 hrs by CCK8 assay. The format is functional. (In general: Formazan colour is commonly taken as a measure of viable cells.)
For series [2], the system named is NCI/ADR-RES. Description: Cytotoxicity against DOX-resistant human MCF7/ADR cells assessed as cell growth inhibition at 5 uM incubated for 48 hrs by CCK8 assay relative to control. The class given is functional.
For series [3], the system named is MCF7. Description: Cytotoxicity against human MCF7 cells assessed as cell growth inhibition at 5 uM incubated for 48 hrs by CCK8 assay relative to control. The format is functional.
Series [4] concerns the target ATP-dependent translocase ABCB1 (Homo sapiens, UniProt P08183). Description: Inhibition of P-gp in DOX-resistant human MCF7/ADR cells assessed as increase in intracellular Rh123 accumulation incubated for 4 hrs by flow cytometry. The following applies: mcf7adr, at 2.5 to 5 µM, dose 2.5-5 µM. The class given is cell-based. A general note: A flow cytometer gives signals particle by particle.

Series [5] has as its system NCI/ADR-RES. The series is described as follows: Downregulation of P-gp expression in DOX-resistant human MCF7/ADR cells at 0.5 to 5 uM incubated for 48 hrs by Western blot analysis. To be noted: dose 0.5-5 µM. The format is functional, cell-based.

ATP-dependent translocase ABCB1, sequence (P08183 whole entry): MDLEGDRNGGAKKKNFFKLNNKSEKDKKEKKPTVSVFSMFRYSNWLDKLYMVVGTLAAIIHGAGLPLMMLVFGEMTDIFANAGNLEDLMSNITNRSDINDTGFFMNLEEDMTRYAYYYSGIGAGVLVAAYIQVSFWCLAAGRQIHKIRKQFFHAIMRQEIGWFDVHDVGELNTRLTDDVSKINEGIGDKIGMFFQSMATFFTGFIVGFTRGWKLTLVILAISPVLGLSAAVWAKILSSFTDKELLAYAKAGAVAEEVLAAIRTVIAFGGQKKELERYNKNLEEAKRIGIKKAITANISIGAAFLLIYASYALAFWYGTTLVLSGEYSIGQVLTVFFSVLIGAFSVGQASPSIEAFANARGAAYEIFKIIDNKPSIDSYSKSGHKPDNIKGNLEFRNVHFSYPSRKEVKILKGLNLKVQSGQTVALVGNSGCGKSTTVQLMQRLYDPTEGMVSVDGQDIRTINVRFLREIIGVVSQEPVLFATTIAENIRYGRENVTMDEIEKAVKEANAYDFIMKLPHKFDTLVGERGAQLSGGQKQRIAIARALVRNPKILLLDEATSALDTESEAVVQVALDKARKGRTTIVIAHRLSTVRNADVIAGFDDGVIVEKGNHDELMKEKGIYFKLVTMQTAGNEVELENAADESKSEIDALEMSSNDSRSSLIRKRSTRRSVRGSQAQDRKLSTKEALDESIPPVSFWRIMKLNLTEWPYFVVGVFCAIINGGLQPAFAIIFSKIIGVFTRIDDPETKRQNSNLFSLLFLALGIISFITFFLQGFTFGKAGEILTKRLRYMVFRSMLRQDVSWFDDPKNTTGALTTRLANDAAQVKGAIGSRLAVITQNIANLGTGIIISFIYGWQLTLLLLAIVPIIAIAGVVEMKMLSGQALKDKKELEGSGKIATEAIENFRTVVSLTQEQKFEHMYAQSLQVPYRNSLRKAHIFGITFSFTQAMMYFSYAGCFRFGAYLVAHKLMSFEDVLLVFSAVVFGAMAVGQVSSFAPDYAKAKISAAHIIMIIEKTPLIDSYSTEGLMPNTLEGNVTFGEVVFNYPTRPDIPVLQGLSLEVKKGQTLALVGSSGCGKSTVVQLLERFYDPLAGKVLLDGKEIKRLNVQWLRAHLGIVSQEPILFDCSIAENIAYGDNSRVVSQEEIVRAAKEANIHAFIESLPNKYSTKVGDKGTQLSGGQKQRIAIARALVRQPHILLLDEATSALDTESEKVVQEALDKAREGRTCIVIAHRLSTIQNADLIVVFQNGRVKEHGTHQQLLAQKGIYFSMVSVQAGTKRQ

As a reminder, the inhibition is the relative decrease from the control value, in per cent. In the case of `COc1cc2c(cc1OC)CN(C(=O)c1ccc(-c3ccc(NC(=O)c4cc5cc([N+](=O)[O-])ccc5[nH]4)cc3)o1)CC2`, the “Ratio IC50” value in series [1] is 189.9. Also, the figures for the inhibition at 5 µM in series [2] and in series [3] were 5.7% and 5.1%, respectively.

Consider `COc1cc2c(cc1OC)CN(C(=O)c1ccc(-c3ccc(NC(C)=O)cc3)o1)CC2`, for which, in series [1], the “Ratio IC50” value is given as 18.6. For the same compound, the values for the inhibition at 5 µM in series [2] and in series [3] were 10.1% and 11%, respectively.

For `COc1ccc(-c2ccc(C(=O)N3CCc4cc(OC)c(OC)cc4C3)o2)cc1`, the “Ratio IC50” value in series [1] worked out at 39.4. Further, the inhibition at 5 µM in series [2] was 25.7%; in series [3], 11.2%.

Turning to `C/C=C/C[C@@H](C)[C@@H](O)[C@H]1C(=O)N[C@@H](CC)C(=O)N(C)CC(=O)N(C)[C@@H](CC(C)C)C(=O)N[C@@H](C(C)C)C(=O)N(C)[C@@H](CC(C)C)C(=O)N[C@@H](C)C(=O)N[C@H](C)C(=O)N(C)[C@@H](CC(C)C)C(=O)N(C)[C@@H](CC(C)C)C(=O)N(C)[C@@H](C(C)C)C(=O)N1C` [CYCLOSPORINE], the inhibition at 5 µM in series [2] amounted to 24.5%.

For the compound `COc1cc2c(cc1OC)CN(C(=O)c1ccc(-c3ccc(NC(=O)c4cccc5[nH]ccc45)cc3)o1)CC2`, the “Ratio IC50” value in series [1] came to 220. For the same compound, the inhibition at 5 µM is 9.2% in series [2] and 7.6% in series [3].

`C/C=C/C(=O)Nc1ccc(-c2ccc(C(=O)N3CCc4cc(OC)c(OC)cc4C3)o2)cc1`: the “Ratio IC50” value in series [1] was 130.1. Further, the results for the inhibition at 5 µM in series [2] and in series [3] were 8.8% and 1.7%, respectively.

For `COc1cc2c(cc1OC)CN(C(=O)c1ccc(-c3ccc(NC(=O)c4csc5ccccc45)cc3)o1)CC2`, the inhibition at 5 µM in series [2] was 41.9%; in series [3], 37.3%.

Turning to `COc1cc2c(cc1OC)CN(C(=O)c1ccc(-c3ccc(NC(=O)C4CCCC4)cc3)o1)CC2`, the “Ratio IC50” value in series [1] amounted to 18.6. In addition, the inhibition at 5 µM in series [2] was determined as 19.8%; in series [3], 15.7%.

In the case of `COc1ccc2[nH]c(C(=O)Nc3ccc(-c4ccc(C(=O)N5CCc6cc(OC)c(OC)cc6C5)o4)cc3)cc2c1`, the “Ratio IC50” value in series [1] amounted to 214.4. In addition, the results for the inhibition at 5 µM in series [2] and in series [3] were 16.1% and 19.5%, respectively.

With `COc1cc2c(cc1OC)CN(C(=O)c1ccc(-c3ccc(NC(=O)c4cc5cc(C)ccc5[nH]4)cc3)o1)CC2`, the “Ratio IC50” value in series [1] was 116.9. Besides, the inhibition at 5 µM came out at 10.1% in series [2] and 8.1% in series [3].

For the compound `COc1cc2c(cc1OC)CN(C(=O)c1ccc(-c3ccc(NC(=O)Cc4cccc5ccccc45)cc3)o1)CC2`, the “Ratio IC50” value in series [1] was 168.8. Besides, the inhibition at 5 µM in series [2] came to 26.3%.

With `COc1cc2c(cc1OC)CN(C(=O)c1ccc(-c3ccc(NC(=O)c4cc5cc(F)ccc5[nH]4)cc3)o1)CC2`, the “Ratio IC50” value in series [1] was 1163. Moreover, the inhibition at 5 µM in series [2] came to 19.8%; in series [3], 12%. For the same compound, the “inhibition (INH)” value in series [4] was “Dose-Dependent Effect”. The outcome in series [5] was inactive.

In the case of `COc1cc2c(cc1OC)CN(C(=O)c1ccc(-c3ccc(NC(=O)c4cc5ccc(Br)cc5[nH]4)cc3)o1)CC2`, the “Ratio IC50” value in series [1] was found to be 497.5. Further, the values for the inhibition at 5 µM in series [2] and in series [3] were 14.7% and 7.4%, respectively.

As for `COc1cc2c(cc1OC)CN(CCc1ccc(NC(=O)c3cc(OC)c(OC)cc3NC(=O)c3cnc4ccccc4c3)cc1)CC2`, the “Ratio IC50” value in series [1] worked out at 319.3. In series [3], the inhibition at 5 µM came to 21.3%.

For the compound `COc1cc2c(cc1OC)CN(C(=O)c1ccc(-c3ccc(NC(=O)c4cccc5ccccc45)cc3)o1)CC2`, the “Ratio IC50” value in series [1] is reported as 201.7. In addition, the inhibition at 5 µM worked out at 28.4% in series [2] and 34.8% in series [3].

Consider `COc1cc2c(cc1OC)CN(C(=O)c1ccc(-c3ccc(NC(=O)c4ccc5ccccc5c4)cc3)o1)CC2`, for which the “Ratio IC50” value in series [1] was determined as 451.1. Also, the inhibition at 5 µM in series [2] worked out at 23.8%; in series [3], 29.5%.

Take `CCCCC(=O)Nc1ccc(-c2ccc(C(=O)N3CCc4cc(OC)c(OC)cc4C3)o2)cc1`: the “Ratio IC50” value in series [1] was 15.7. Further, the inhibition at 5 µM amounted to 13.1% in series [2] and 17.6% in series [3].

`COc1cc2c(cc1OC)CN(C(=O)c1ccc(-c3ccc(NC(=O)/C=C/c4ccccc4)cc3)o1)CC2`: the “Ratio IC50” value in series [1] was determined as 277.7. For the same compound, the inhibition at 5 µM amounted to 14.6% in series [2] and 14.5% in series [3].

Regarding `COc1ccc(CCN(C)CCCC(C#N)(c2ccc(OC)c(OC)c2)C(C)C)cc1OC` (stereo not drawn), in series [2], the inhibition at 5 µM stood at 12.2%.

With `COc1cc2c(cc1OC)CN(C(=O)c1ccc(-c3ccc(NC(=O)C(C)(C)C)cc3)o1)CC2`, the “Ratio IC50” value in series [1] is 78.4. Moreover, the values for the inhibition at 5 µM in series [2] and in series [3] were 23.3% and 12.9%, respectively.

Turning to `COc1cc2c(cc1OC)CN(C(=O)c1ccc(-c3ccc(NC(=O)c4cc5cc(Cl)ccc5[nH]4)cc3)o1)CC2`, the “Ratio IC50” value in series [1] worked out at 613.3. Further, the figures for the inhibition at 5 µM in series [2] and in series [3] were 14.4% and 15.8%, respectively.

As to `CCC(=O)Nc1ccc(-c2ccc(C(=O)N3CCc4cc(OC)c(OC)cc4C3)o2)cc1`, the “Ratio IC50” value in series [1] amounted to 33.3. In addition, the figures for the inhibition at 5 µM in series [2] and in series [3] were 23.2% and 17.2%, respectively.

For `COc1cc2c(cc1OC)CN(C(=O)c1ccc(-c3ccc(NC(=O)C4CCC4)cc3)o1)CC2`, the “Ratio IC50” value in series [1] came out at 82.1. Also, the inhibition at 5 µM in series [3] was determined as 15.3%.

Turning to `COc1cc2c(cc1OC)CN(C(=O)c1ccc(-c3ccc(NC(=O)C(C)C)cc3)o1)CC2`, in series [1], the “Ratio IC50” value was 46.5. Further, the inhibition at 5 µM was determined as 18.4% in series [2] and 19.1% in series [3].

Turning to `COc1cc2c(cc1OC)CN(C(=O)c1ccc(-c3ccc(NC(=O)c4cc5ccccc5o4)cc3)o1)CC2`, the inhibition at 5 µM in series [2] stood at 63.7%; in series [3] it was 44.5%.

For the compound `COc1ccc2cc(C(=O)Nc3ccc(-c4ccc(C(=O)N5CCc6cc(OC)c(OC)cc6C5)o4)cc3)[nH]c2c1`, the “Ratio IC50” value in series [1] turned out to be 437.1. Further, the values for the inhibition at 5 µM in series [2] and in series [3] were 12.4% and 7.3%, respectively.

With `COc1cccc2c1C(=O)c1c(O)c3c(c(O)c1C2=O)C[C@@](O)(C(=O)CO)C[C@@H]3O[C@H]1C[C@H](N)[C@H](O)[C@H](C)O1` [DOXORUBICIN], in series [1], the “Ratio IC50” value worked out at 1.

`COc1cc2c(cc1OC)CN(C(=O)c1ccc(-c3ccc(NC(=O)C4CC4)cc3)o1)CC2`: in series [1], the “Ratio IC50” value is 57.2. The figures for the inhibition at 5 µM in series [2] and in series [3] were 10.9% and 12.2%, respectively.

For the compound `COc1cc2c(cc1OC)CN(C(=O)c1ccc(-c3ccc(NC(=O)c4cc5c(F)cc(F)cc5[nH]4)cc3)o1)CC2`, the “Ratio IC50” value in series [1] is reported as 600.2. The inhibition at 5 µM in series [2] is 14.7%; in series [3] it was 9.1%.

Regarding `COc1cc2c(cc1OC)CN(C(=O)c1ccc(-c3ccc(NC(=O)c4c[nH]c5ccccc45)cc3)o1)CC2`, the “Ratio IC50” value in series [1] stood at 347. In addition, the inhibition at 5 µM came out at 18.2% in series [2] and 16.1% in series [3].

On to `COc1cc2c(cc1OC)CN(C(=O)c1ccc(-c3ccc(NC(=O)c4cc5cc(Br)ccc5[nH]4)cc3)o1)CC2`, for which the “Ratio IC50” value in series [1] came to 5473. Besides, the inhibition at 5 µM in series [2] worked out at 19.5%; in series [3], 26.8%.

As to `COc1cc2c(cc1OC)CN(C(=O)c1ccc(-c3ccc(NC(=O)c4cc5ccc(F)cc5[nH]4)cc3)o1)CC2`, in series [1], the “Ratio IC50” value was found to be 566.4. In addition, the results for the inhibition at 5 µM in series [2] and in series [3] were 16.9% and 28.1%, respectively.

On to `COc1cc2c(cc1OC)CN(C(=O)c1ccc(-c3ccc(NC(=O)c4cc5ccccc5s4)cc3)o1)CC2`, for which the inhibition at 5 µM in series [2] worked out at 46.8%; in series [3], 48.8%.

For the compound `COc1cc2c(cc1OC)CN(C(=O)c1ccc(-c3ccc(NC(=O)CC(C)(C)C)cc3)o1)CC2`, the “Ratio IC50” value in series [1] is recorded as 52. Moreover, the inhibition at 5 µM in series [2] was 12.6%; in series [3], 18.5%.

Turning to `COc1cc2c(cc1OC)CN(C(=O)c1ccc(-c3ccc(NC(=O)c4cc5ccccc5[nH]4)cc3)o1)CC2`, the “Ratio IC50” value in series [1] stood at 540.5. In addition, the inhibition at 5 µM stood at 15.1% in series [2] and 13.3% in series [3].

Turning to `COc1cc2c(cc1OC)CN(C(=O)c1ccc(-c3ccc(NC(=O)c4cc5c(C)cccc5[nH]4)cc3)o1)CC2`, the “Ratio IC50” value in series [1] came to 88.3. Besides, the results for the inhibition at 5 µM in series [2] and in series [3] were 15.1% and 16.6%, respectively.
